Experimental data published in US10039747B2, “Tetrahydrocyclopentapyrrole derivatives and a method for preparing the same” (Daewoong Pharmaceutical Co., Ltd., priority 2013, dated 2018).

Biological target: T1, H+/K+-ATPase (Sus scrofa, UniProt P19156)
T1 construct: reaction buffer solution (60 mmol/l Tris-HCl buffer solution, pH 7.4) containing hog gastric vesicle; from tissue; host or cells: hog stomach (gastric vesicles, by centrifugation after Rabon et al. 1988)
Assay: Inhibition of proton pump (H+/K+-ATPase) activity in hog gastric vesicles
Type: biochemical
Settings: K+ specific H+/K+-ATPase activity, pH 7.4, 37° C. for 40 minutes, malachite green
Method in brief: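 Hog gastric vesicles in 60 mmol/l Tris-HCl pH 7.4 with compound, started with ATP, 40 min at 37° C. Pi read by malachite green at 570 nm; K+-specific activity taken as difference between +K+ and −K+ activity. IC50 from % inhibition by 4-parameter logistic fit.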

T1 sequence (P19156 2-1034 limits assumed): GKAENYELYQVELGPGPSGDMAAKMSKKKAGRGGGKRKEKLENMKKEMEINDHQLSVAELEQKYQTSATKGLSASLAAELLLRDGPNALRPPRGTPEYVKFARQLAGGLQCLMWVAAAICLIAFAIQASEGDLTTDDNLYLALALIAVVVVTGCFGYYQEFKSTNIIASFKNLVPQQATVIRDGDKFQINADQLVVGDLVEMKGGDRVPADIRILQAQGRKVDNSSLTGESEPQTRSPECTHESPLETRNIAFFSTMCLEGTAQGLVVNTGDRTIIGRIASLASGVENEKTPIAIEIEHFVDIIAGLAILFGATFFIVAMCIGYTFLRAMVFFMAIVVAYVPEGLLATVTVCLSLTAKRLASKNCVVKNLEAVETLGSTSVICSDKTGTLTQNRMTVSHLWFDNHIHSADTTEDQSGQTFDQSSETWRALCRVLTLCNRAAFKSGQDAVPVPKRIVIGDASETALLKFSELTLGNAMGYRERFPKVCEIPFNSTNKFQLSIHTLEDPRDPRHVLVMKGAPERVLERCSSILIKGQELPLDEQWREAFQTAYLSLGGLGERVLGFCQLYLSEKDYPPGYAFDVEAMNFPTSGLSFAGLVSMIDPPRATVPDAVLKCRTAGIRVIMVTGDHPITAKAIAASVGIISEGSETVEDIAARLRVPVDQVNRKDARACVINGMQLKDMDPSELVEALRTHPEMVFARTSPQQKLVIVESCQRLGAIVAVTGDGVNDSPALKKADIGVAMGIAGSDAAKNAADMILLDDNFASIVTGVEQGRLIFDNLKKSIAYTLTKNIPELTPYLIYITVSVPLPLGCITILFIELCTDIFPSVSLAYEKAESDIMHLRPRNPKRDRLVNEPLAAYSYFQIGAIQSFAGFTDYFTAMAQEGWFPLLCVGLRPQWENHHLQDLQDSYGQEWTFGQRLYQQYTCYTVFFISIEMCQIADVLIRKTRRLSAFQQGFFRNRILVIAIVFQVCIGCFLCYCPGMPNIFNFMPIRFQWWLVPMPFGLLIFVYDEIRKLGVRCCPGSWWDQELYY
T1 sequence (P18434 whole entry partner): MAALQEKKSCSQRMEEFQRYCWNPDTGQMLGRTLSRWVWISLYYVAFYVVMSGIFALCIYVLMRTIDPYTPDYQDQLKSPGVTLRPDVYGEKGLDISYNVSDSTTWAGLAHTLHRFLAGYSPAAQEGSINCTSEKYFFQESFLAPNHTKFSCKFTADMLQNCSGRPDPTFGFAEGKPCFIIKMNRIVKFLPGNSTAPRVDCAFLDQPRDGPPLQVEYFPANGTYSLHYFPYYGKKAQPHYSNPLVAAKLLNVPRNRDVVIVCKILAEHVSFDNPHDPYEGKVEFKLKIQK

SMILES: CNC1CCc2c1cn(S(=O)(=O)c1c(Cl)cccc1Cl)c2-c1ccccc1F (centres unmarked) [Example 75, 2-((2,6-dichlorophenyl)sulfonyl)-1-(2-fluorophenyl)-N-methyl-2,4,5,6-tetrahydrocyclopenta[c]pyrrol-4-amine]
- IC50: 2140 nM

SMILES: CNC1CCc2c1cn(S(=O)(=O)c1ccc(Cl)c(Cl)c1)c2-c1ccccc1F (centres unmarked) [Example 76, 2-((3,4-dichlorophenyl)sulfonyl)-1-(2-fluorophenyl)-N-methyl-2,4,5,6-tetrahydrocyclopenta[c]pyrrol-4-amine]
- IC50: 490 nM

SMILES: CNC1CCc2c1cn(S(=O)(=O)c1cc(Cl)cc(Cl)c1)c2-c1ccccc1F (centres unmarked) [Example 77, 2-((3,5-dichlorophenyl)sulfonyl)-1-(2-fluorophenyl)-N-methyl-2,4,5,6-tetrahydrocyclopenta[c]pyrrol-4-amine]
- IC50: 410 nM

SMILES: CNC1CCc2c1cn(S(=O)(=O)c1cc(Cl)cc(Cl)c1)c2-c1ccc(C)cc1F (centres unmarked) [Example 78, 2-((3,5-dichlorophenyl)sulfonyl)-1-(2-fluoro-4-methylphenyl)-N-methyl-2,4,5,6-tetrahydrocyclopenta[c]pyrrol-4-amine]
- IC50: 460 nM

SMILES: CNC1CCc2c1cn(S(=O)(=O)c1cc(Cl)cc(Cl)c1)c2-c1cc(Cl)ccc1Cl (centres unmarked) [Example 79, 1-(2,5-dichlorophenyl)-2-((3,5-dichlorophenyl)sulfonyl)-N-methyl-2,4,5,6-tetrahydrocyclopenta[c]pyrrol-4-amine]
- IC50: 770 nM

SMILES: CNC1CCc2c1cn(S(=O)(=O)c1ccc(Cl)c(Cl)c1Cl)c2-c1ccccc1F (centres unmarked) [Example 80, 1-(2-fluorophenyl)-N-methyl-2-((2,3,4-trichlorophenyl)sulfonyl)-2,4,5,6-tetrahydrocyclopenta[c]pyrrol-4-amine]
- IC50: 620 nM

SMILES: CNC1CCc2c1cn(S(=O)(=O)c1cc(Cl)c(Cl)cc1Cl)c2-c1ccccc1 (centres unmarked) [Example 81, N-methyl-1-phenyl-2-((2,4,5-trichlorophenyl)sulfonyl)-2,4,5,6-tetrahydrocyclopenta[c]pyrrol-4-amine]
- IC50: 1140 nM

SMILES: CNC1CCc2c1cn(S(=O)(=O)c1cc(Cl)c(Cl)cc1Cl)c2-c1ccc(C)cc1F (centres unmarked) [Example 82, 1-(2-fluoro-4-methylphenyl)-N-methyl-2-((2,4,5-trichlorophenyl)sulfonyl)-2,4,5,6-tetrahydrocyclopenta[c]pyrrol-4-amine]
- IC50: 660 nM

SMILES: CNC1CCc2c1cn(S(=O)(=O)c1cc(Cl)c(Cl)cc1Cl)c2-c1cc(Cl)ccc1Cl (centres unmarked) [Example 83, 1-(2,5-dichlorophenyl)-N-methyl-2-((2,4,5-trichlorophenyl)sulfonyl)-2,4,5,6-tetrahydrocyclopenta[c]pyrrol-4-amine]
- IC50: 980 nM

SMILES: CNC1CCc2c1cn(S(=O)(=O)c1cc(Cl)c(Cl)cc1Cl)c2-c1ccccc1F (centres unmarked) [Example 84, 1-(2-fluorophenyl)-N-methyl-2-((2,4,5-trichlorophenyl)sulfonyl)-2,4,5,6-tetrahydrocyclopenta[c]pyrrol-4-amine]
- IC50: 390 nM

SMILES: CNC1CCc2c1cn(S(=O)(=O)c1c(Cl)cc(Cl)cc1Cl)c2-c1ccccc1F (centres unmarked) [Example 85, 1-(2-fluorophenyl)-N-methyl-2-((2,4,6-trichlorophenyl)sulfonyl)-2,4,5,6-tetrahydrocyclopenta[c]pyrrol-4-amine]
- IC50: 2190 nM

SMILES: CNC1CCc2c1cn(S(=O)(=O)c1c(Cl)cc(C(F)(F)F)cc1Cl)c2-c1ccccc1F (centres unmarked) [Example 86, 2-((2,6-dichloro-4-(trifluoromethyl)phenyl)sulfonyl)-1-(2-fluorophenyl)-N-methyl-2,4,5,6-tetrahydrocyclopenta[c]pyrrol-4-amine]
- IC50: 5950 nM

SMILES: CNC1CCc2c1cn(S(=O)(=O)c1cccs1)c2-c1ccccc1F (centres unmarked) [Example 87, 1-(2-fluorophenyl)-N-methyl-2-(thiophen-2-ylsulfonyl)-2,4,5,6-tetrahydrocyclopenta[c]pyrrol-4-amine]
- IC50: 1440 nM

SMILES: CNC1CCc2c1cn(S(=O)(=O)c1cccnc1)c2-c1ccccc1F (centres unmarked) [Example 88, 1-(2-fluorophenyl)-N-methyl-2-(pyridin-3-ylsulfonyl)-2,4,5,6-tetrahydrocyclopenta[c]pyrrol-4-amine]
- IC50: 510 nM
